Laboratory results as given in PMC9457533, “Study on Metronidazole Acid-Base Behavior and Speciation with Ca^2+ for Potential Applications in Natural Waters” (Molecules, 2022).
Where “and” joins values, the source holds several entries; their conditions need not be identical. Identical values can stand only once. Like-named read-outs stand apart in the source and are kept apart here.

Key:
[1] = Potentiometric titrations: protonation constants of MNZ in NaCl; format: physicochemical; details: for logβ^H2L: 2H + L = H2L; for logβ^HL: H + L = HL; for logβ average value: I = 0.15 mol L^-1, average of 1H-NMR, UV; for logK^H2L: LH + H = H2L
Description: The knowledge of the protonation constants of a ligand is crucial to defining the ionization state which influences several characteristics, such as aqueous solubility, and complexation ability. The equilibrium reactions associated with the protonation constant values are the following, where the charges are omitted for simplicity and MNZ was indicated as L: iH + L = HiL β^H^iL(1) H + Hi−1L = HiL K^H^iL(2)
The potentiometric titrations were employed by Metrohm-Titrando 809 automated potentiometer with a combined glass electrode ORION, type Ross 8102SC and a Metrohm Dosino 800 automatic dispenser. The titrations were performed in cells with a capacity of 25 mL, characterized by a double wall inside which thermostated water circulates. The cells were connected to a thermostat model D1-G Haake. During the measurements, pure N2 was bubbled to avoid CO2 and O2 in solution. The system is interfaced to a PC through the Metrohm TIAMO 2.0 software, which automatically acquires the mL/mV pairs. It can control several parameters, such as e.m.f. stability, titrant delivery, and data acquisition. Estimated accuracy of this apparatus is ±0.15 mV and ±0.002 mL for e.m.f. and for readings of titrant volume. The acid-base titrations were carried out first on 25 mL solutions containing L, HCl, and NaCl as supporting electrolytes at different temperatures and ionic strength conditions. Various potentiometric titrations are performed on 25 mL containing Ca^2+-L in different ratios, in NaCl at t = 15, 25, and 37 °C and I = 0.15, 0.5 and […]. The solutions were titrated using standard NaOH solution. A calibration was associated with each measurement by titration with NaOH of a solution containing HCl, NaCl, and H2O, in order to calculate the standard electrode potential (E^0) and the pKw values.
(§1) The protonation constant of MNZ (L), formation constant values of Ca^2+(M)-MNZ (L), and titration parameters (analytical concentration of the reagents, standard potential E^0, junction potential) were determined by using BSTAC and STACO programs. LIANA program has provided the parameters characterizing the dependence of the protonation and formation constant values on the temperature and ionic strength. More details on software are present in ref. [59]. ^1H NMR data were processed by HypNMR software, which allows for calculating protonation and formation constant values and the individual chemical shift of species through the observed signals and assuming fast mutual exchange in the NMR time scale. UV-Vis data are processed by the HypSpec program, which allows refining of the protonation and formation constant as well as the molar absorption coefficient values (ε) of the species. The speciation diagrams and the formation percentage of the species are determined by the Hyss program.

[2] = UV-Vis spectrophotometric titrations: formation constant of Ca^2+-MNZ species; format: physicochemical; details: Ca + L + H = CaLH; t = 25 °C, I = 0.15 mol L^-1
Description: As widely reported in the literature, the high ability of L to absorb in the UV range has often been used to determine quantitatively and qualitatively this antibiotic in waters. Various spectrophotometric titrations on solutions containing L and M-L mixtures were performed to investigate L spectral behavior and to confirm the protonation and formation constants values as well as the speciation model obtained by potentiometry, as already shown with other systems.
The spectrophotometric titrations were performed with a Varian Cary 50 UV-Vis spectrophotometer characterized by an optical fiber with a fixed 1 cm path length. The system was interfaced to a PC by the Varian Cary WinUV software. For all titrations, a Thermo-Fisher glass electrode was also used to record simultaneously the couple of data absorbance (A) and e.m.f. (mV) vs. volume of titrant (mL), for each titration point. The analyses were carried out in a thermostated cell, in which N2 was bubbled in solution to avoid CO2 and O2.
The protonation constant of MNZ (L), formation constant values of Ca^2+(M)-MNZ (L), and titration parameters (analytical concentration of the reagents, standard potential E^0, junction potential) were determined by using BSTAC and STACO programs. […] The speciation diagrams and the formation percentage of the species are determined by the Hyss program.

[3] = Dependence of protonation constants on ionic strength (Debye-Hückel type equation); format: physicochemical; details: t = 25 °C, NaCl; for log^Tβ (constant at infinite dilution): extrapolated to I = 0 mol L^-1
Description: The choice to carry out the experiments at various ionic strengths made it possible to study the dependence of the values of the protonation and formation constants on the ionic strength, expressed by a Debye-Hückel type equation, reported below: (5) logβ=logβ^T − 0.51 z* I/1 + 1.5 I + CI where β^T is the protonation constant at infinite dilution, z* is the parameter that refers to the charges present in the solution corresponding to ∑z^2reagents − ∑z^2products, and C refers to the empirical parameter that depends on the stoichiometric coefficients and on the charges. Using Equation (5) and equilibrium constants at various ionic strength values, the formation constants extrapolated to I = 0 mol L^−1, together with the empirical parameter C, were obtained.
as §1

[4] = Dependence of Ca^2+-MNZ formation constant on temperature (van't Hoff equation), thermodynamic parameters; format: physicochemical; details: Ca + LH = CaLH; t = 298.15 K, I = 0.15 mol L^-1 NaCl
Description: The protonation and formation constants values acquired at the three different temperatures of 15, 25, and 37 °C, listed in Table 1, were used to study their dependence on temperature, as already shown for several systems. The data obtained by the potentiometric measurements were analyzed using the following van’t Hoff equation:logβT = logβθ + ΔH^0(1/θ − 1/T) R ln 10(6) where logβT is the stability constant at a certain temperature (expressed in kelvin), while logβθ is the stability constant at t = 298.15 K, and R is the universal gas constant expressed as 8.314 J K^−1 mol^−1. Using the equation just reported, it was possible to calculate the protonation and formation enthalpies change values, together with Gibbs free energy and entropy changes.
as §1

[5] = set-up: method as in earlier work; details: t = 25 °C, I = 0.5 mol L^-1 in KCl, potentiometry; cited from earlier work
[6] = set-up: method as in PMID 23380153; details: 25 °C, I = 0.2 mol L^-1 in NaCl, water-ethanol (90:10, v/v), potentiometric titrations; cited from earlier work
[7] = t = 15 °C, I = 0.15 mol L^-1 NaCl
[8] = t = 15 °C, I = 0.5 mol L^-1 NaCl
[9] = t = 15 °C, I = 0.97 mol L^-1 NaCl
[10] = t = 25 °C, I = 0.5 mol L^-1 NaCl
[11] = t = 25 °C, I = 0.96 mol L^-1 NaCl
[12] = t = 37 °C, I = 0.14 mol L^-1 NaCl
[13] = t = 37 °C, I = 0.5 mol L^-1 NaCl
[14] = t = 37 °C, I = 0.96 mol L^-1 NaCl

## Cc1ncc([N+](=O)[O-])n1CCO [MNZ, 2-Methyl-5-nitroimidazole-1-ethanol]
[1]; [7]
  logβ^H2L: 14.559(5) ^4
  logβ^HL: 12.00(1) ^4
  logK^H2L: 2.56
[1]; [8]
  logβ^H2L: 14.833(4)
  logβ^HL: 12.180(8)
  logK^H2L: 2.653
[1]; [9]
  logβ^H2L: 14.877(7)
  logβ^HL: 12.12(1)
  logK^H2L: 2.76
[1]; t = 25 °C, I = 0.15 mol L^-1 NaCl, potentiometry
  logβ^H2L: 14.130(4)
[1]; [10]
  logβ^H2L: 15.18(4)
  logβ^HL: 12.51(4)
  logK^H2L: 2.67
[1]; [11]
  logβ^H2L: 15.05(6)
  logβ^HL: 12.22(6)
  logK^H2L: 2.83
[1]; [12]
  logβ^H2L: 14.27(8)
  logβ^HL: 11.88(7)
  logK^H2L: 2.39
[1]; [13]
  logβ^H2L: 14.75(8)
  logβ^HL: 12.14(8)
  logK^H2L: 2.61
[1]; [14]
  logβ^H2L: 14.601(8)
  logβ^HL: 12.000(6)
  logK^H2L: 2.601
[1]; L + 2H = LH2, t = 25 °C, potentiometry
  logβ average value: 14.15(6)
[1]; L + H = LH, t = 25 °C, potentiometry
  logβ average value: 11.74(2) ^1
[1]; t = 25 °C, I = 0.15 mol L^-1 NaCl
  logK^H2L: 2.46
[2]
  logβ UV: 14.17(2)
[3]; L + 2H = LH2
  C (empirical parameter for dependence on ionic strength, Equation (5)): 1.16(6)
  log^Tβ (constant at infinite dilution): 14.4(1)
[3]; L + H = LH
  C (empirical parameter for dependence on ionic strength, Equation (5)): 0.7(2) ^1
  log^Tβ (constant at infinite dilution): 12.0(3) ^1
[4]
  TΔS: -4.78 kcal/mol
  ΔG: -3.39 kcal/mol
  ΔH: -34 kJ mol^-1 and −34(8) kJ mol^-1
[5]
  logK2 (protonation constant): 2.68
[6]
  logK1 (protonation constant): 18.1
  logK2 (protonation constant): 7.01
  logK3 (protonation constant): 2.64
